These results are taken from PMC11083148, “Structure–Activity Relationship Studies on Highly Functionalized Pyrazole Hydrazones and Amides as Antiproliferative and Antioxidant Agents” (International Journal of Molecular Sciences, 2024).

Data set [1] relates to HeLa. Kind of data set: MTT assay, antiproliferative activity. Conditions: 10 µM, 48h; for activity at 10 µM: Homo sapiens, read-out: Mean Growth Percentage. The data set is classed as cell-based. On the procedure: (§1) Pyrazole acylhydrazones 10–13 and amides 14–22 were tested by MTT assay to evaluate their antiproliferative and cytotoxicity properties against a panel of eight tumor cell lines and normal fibroblasts.
(§2) All reagents were purchased from EuroClone, Milan, Italy). The following cell lines were used for MTT assays: SKOV-3 (ovarian adenocarcinoma, ATCC, Manassas, VA, USA); MCF-7 (breast adenocarcinoma, Biologic Bank and Cell Factory, IRCCS Policlinico San Martino, Genoa, Italy); Hep-G2 (hepatocellular carcinoma, ATCC, Manassas, VA, USA); SK-MEL28 (skin melanoma, Biologic Bank and Cell Factory, IRCCS Policlinico San Martino, Genoa, Italy), GM-6114 (embryonic human fibroblast, ATCC, Manassas, VA, USA); MDA-MB231 (breast adenocarcinoma, Biologic Bank and Cell Factory, IRCCS Policlinico San Martino, Genoa, Italy); HeLa (cervical adenocarcinoma, Biologic Bank and Cell Factory, IRCCS Policlinico San Martino, Genoa, Italy); SK-BR3 (breast andenocarcinoma, Biologic Bank and Cell Factory, IRCCS Policlinico San Martino, Genoa, Italy); A549 (lung carcinoma, Biologic Bank and Cell Factory, IRCCS Policlinico San Martino, Genoa, Italy); HUVEC (Human Umbilical Vein Endothelial Cells, ATCC, Manassas, VA, USA). All cell lines were grown in their medium with 10% FBS, 2 mM Glutamine, and 1% penstrep and incubated at 37 °C in 5% CO2 in a humidified environment. The cell lines were plated in 96-well plates at an adequate number to reach 80–90% confluence at the end of the assay. 16 h after cell plating, a 10 mM DMSO stock solution of the compounds was diluted in growth medium and added at a final working concentration of 10 μM. After 48h of incubation, a 2 mg/mL PBS solution of MTT (3-(4,5-dimethyl-2-thiazolyl)-2,5-diphenyl-2H-tetrazolium bromide) was added (30 μL/well). After 4h, the supernatant was removed, and the Formazan precipitates were dissolved in DMSO (100 μL/well). The 96-well plates were incubated for 20 min, and absorbance was measured at 570 nm using a plate reader. The results are expressed as a percentage ratio over control samples (100%) in which the cells were incubated with the same amount of DMSO but without compounds. Each value is the mean of three independent experiments run in six replicates.
(§3) Each IC50 value is the mean of three independent experiments run in duplicate.
Background: Formazan colour is commonly taken as a measure of viable cells.

The subject of data set [2] is SKMEL28. As to the kind of experiment: MTT assay, antiproliferative activity. In kind it is cell-based. To be noted: 48h; for Mean growth percentage at 10 µM: Homo sapiens, SK-MEL-28, 10 µM. On the procedure: as §1, §2, §3
The test system of data set [3] is MCF7. Kind of data set: MTT assay, antiproliferative activity. To be noted: 10 µM, 48h; for mean growth percentage (cell growth remaining vs control) at 10 µM: Homo sapiens. The data set is classed as cell-based. On the procedure:
as §1, §2, §3

Data set [4] deals with SKOV3. Kind of data set: MTT assay, antiproliferative activity. In kind it is cell-based. To be noted: 48h; for Mean growth percentage at 10 µM: Homo sapiens, SK-OV-3, 10 µM. On the procedure: as §1, §2, §3
The test system of data set [5] is washed platelets. Kind of data set: Platelet aggregation (thrombin-induced, Born's method). The data set is classed as cell-based. To be noted: Homo sapiens, 0.1 U/mL thrombin, mean ± SD, read-out: IC50 Aggregation inhibition. The protocol: (§4) The antioxidant properties of acylhydrazones 10–13 and pyrazolyl amides 14–22 were tested by evaluating their inhibition of platelet aggregation and ROS production (Figure 3, Table S1). In fact, human platelets could represent a fast and low-cost biological model to screen compounds as anticancer, anti-inflammatory, and antiaggregating agents. Moreover, ROS production inhibition, related to human platelet aggregation, could provide a good indication of the anti-inflammatory and antioxidant properties of the newly synthesized compounds [47, 50, 51, 52]. N-acetylcysteine (NAC) and acetyl salicylic acid (ASA) were used as reference drugs for antioxidant and antiaggregant activities, respectively.
(§5) Freshly drawn venous blood from healthy volunteers from “Centro Trasfusionale” (IRCCS Policlinico San Martino, Genoa, Italy) was collected into a 130 mM aqueous trisodium citrate anticoagulant solution (9:1). The donors claimed to not have taken drugs known to interfere with platelet function during the two weeks prior to blood collection and gave their informed consent. Whole blood was centrifuged at 100× g for 20 min to afford platelet-rich plasma that was then spun at 1100× g for 15 min. The obtained pellet was washed once with a pH 5.2 ACD solution (75 mM trisodium citrate, 42 mM citric acid, and 136 mM glucose), centrifuged at 1100× g for 15 min, and then re-suspended in pH 7.4 Hepes buffer (145 mM NaCl, 5 mM KCl, 1 mM MgSO4, 10 mM glucose, and 10 mM HEPES).
Thrombin was purchased from Sigma-Aldrich/Merck Millipore. A DMSO solution of compounds 10–22 was diluted in saline immediately before each experiment and added to the washed platelets (3.0 × 10^8/mL) at 37 °C. After 3 min, 0.1 U/mL thrombin was added, and platelet aggregation was quantified according to Born’s method using a Bio-Data Aggregometer (Bio-Data Corporation, Horsham, PA, USA). The IC50 values were calculated as detailed above.

Data set [6] concerns washed platelets. Kind of data set: ROS assay in platelets (DCFH-DA, thrombin-stimulated). To be noted: 0.1 U/mL thrombin, mean ± SD, read-out: IC50 ROS production inhibition. In kind it is cell-based, human. On the procedure: as §4, §5
2′,7′-Dichlorofluorescein diacetate (DCFH-DA) and thrombin were purchased from Sigma-Aldrich/Merck Millipore. DMSO solutions of 10–22 were diluted in saline immediately before each experiment. ROS production was quantified by DCFH-DA, a ROS-sensitive probe that yields, upon oxidation, the fluorescent adduct DCF that is trapped inside the cells. Briefly, washed platelets (1.0 × 10^8/mL), pre-incubated with saline solutions of 10–22 for 15 min at 37 °C, were stimulated by 0.1 U/mL thrombin. Incubation was stopped by cooling samples in an ice bath, and then samples were immediately analyzed in a Merck Millipore Bioscience Guava easyCyte flow cytometer (Merk Millipore, Burlington, MA, USA). The reported IC50 values represent the molar concentration of the compounds able to inhibit 50% of the maximal aggregation induced by the agonist and are calculated as the percentage inhibition of the maximal aggregation measured in the presence of the agent compared with the measure in a control sample containing saline, carried out under the same conditions. The IC50 values were extrapolated from nonlinear regression analysis of concentration–response curves (three points) using MS Excel software (Microsoft 365 suite). Each IC50 value is the mean of six independent experiments.

Data set [7] has as its system Hep-G2. Kind of data set: MTT assay, antiproliferative activity. In kind it is cell-based. Conditions: for Mean growth percentage at 10 µM: Homo sapiens, HepG2, 48h. On the procedure:
as §1, §2

The subject of data set [8] is MDA-MB231. As to the kind of experiment: MTT assay, antiproliferative activity. The data set is classed as cell-based. To be noted: for Mean growth percentage at 10 µM: Homo sapiens, MDA-MB-231, 48h. On the procedure: as §1, §2
The test system of data set [9] is SK-BR3. Kind of data set: MTT assay, antiproliferative activity. The data set is classed as cell-based. Conditions: for Mean growth percentage at 10 µM: Homo sapiens, SK-BR-3, 48h. The protocol:
as §1, §2

The subject of data set [10] is A549. Kind of data set: MTT assay, antiproliferative activity. In kind it is cell-based. To be noted: 48h; for activity at 10 µM: Homo sapiens, read-out: Mean Growth Percentage. The protocol: as §1, §2
Data set [11] has as its system GM-6114. Kind of data set: MTT assay, cytotoxicity on normal fibroblasts. In kind it is cell-based. Conditions: human, 48 h, 10 µM.

Each structure is given as a SMILES string.

Turning to `COc1ccc(/C=N/NC(=O)c2c(N)n[nH]c2Nc2ccccc2)cc1` [10a, (E)-3-amino-N′-(4-methoxybenzylidene)-5-(phenylamino)-1H-pyrazole-4-carbohydrazide], the melting point lay within 227 to 232 °C. Also, in [1], the activity at 10 µM was determined as 98.4%. Besides, the Mean growth percentage at 10 µM in data set [2] was 86.7%. In addition, in data set [3], the mean growth percentage (cell growth remaining vs control) at 10 µM came to 95.1%. The same molecule showed a Mean growth percentage at 10 µM in data set [4] of 104%. In data set [5], the IC50 is 204 ± 12 µM. In addition, the IC50 in data set [6] (Homo sapiens, Platelet) is 111 ± 9 µM. The molecule also had a Mean growth percentage at 10 µM in data set [7] of 115%. The Mean growth percentage at 10 µM in data set [8] was found to be 99.1%. In data set [9], the Mean growth percentage at 10 µM was determined as 95.5%. In addition, in data set [10], the activity at 10 µM stood at 103%. In addition, in data set [11], the “Mean Growth Percentage” value was found to be 110.40%.
With `COc1ccc(/C=N/NC(=O)c2c(N)nn(C)c2Nc2ccccc2)cc1OC` [11b, (E)-3-amino-N′-(3,4-dimethoxybenzylidene)-1-methyl-5-(phenylamino)-1H-pyrazole-4-carbohydrazide], the figures for the activity at 10 µM in [1] and in data set [10] were 99.5% and 94.8%, respectively. The Mean growth percentage at 10 µM in [2] stood at 93%; in [4], 100%; in [7], 116%; in [8], 85.7%; in data set [9], 86%. Moreover, in [3], the mean growth percentage (cell growth remaining vs control) at 10 µM was found to be 94.8%. Besides, the IC50 worked out at 129 ± 10 µM in data set [5] and 113 ± 7 µM in data set [6] (Homo sapiens, Platelet). In data set [11], the “Mean Growth Percentage” value was determined as 104.95%.
Turning to `COc1ccc(/C=N/NC(=O)c2c(N)nn(C)c2Nc2ccccc2)cc1Oc1ccccc1` [11c, (E)-3-amino-N′-(4-methoxy-3-phenoxybenzylidene)-1-methyl-5-(phenylamino)-1H-pyrazole-4-carbohydrazide], the activity at 10 µM in [1] came to 101%; in data set [10] it was 91.7%. For the same molecule, the Mean growth percentage at 10 µM in data set [2] came out at 87.6%; in data set [4], 110%; in data set [7], 113%; in [8] it was 93.4%; in data set [9], 83.1%. In data set [3], the mean growth percentage (cell growth remaining vs control) at 10 µM worked out at 84.5%. In addition, the IC50 turned out to be 841 ± 43 µM in data set [5] and 148 ± 13 µM in data set [6] (Homo sapiens, Platelet). In [11], the “Mean Growth Percentage” value amounted to 105.27%.
Consider `COc1ccc(/C=N/NC(=O)c2c(Nc3ccccc3)nn(C)c2N)cc1` [12a, (E)-5-amino-N′-(4-methoxybenzylidene)-1-methyl-3-(phenylamino)-1H-pyrazole-4-carbohydrazide], for which the figures for the activity at 10 µM in data set [1] and in data set [10] were 94.8% and 97.1%, respectively. Moreover, the Mean growth percentage at 10 µM was found to be 76.2% in [2]; 102% in data set [4]; 111% in [7]; 97.9% in data set [8]; 95% in data set [9]. For the same molecule, the mean growth percentage (cell growth remaining vs control) at 10 µM in data set [3] turned out to be 88.5%. In addition, the IC50 in data set [5] turned out to be 265 ± 23 µM; in data set [6] (Homo sapiens, Platelet), 113 ± 7 µM. Also, the “Mean Growth Percentage” value in [11] is 100.38%.
For the molecule `COc1ccc(/C=N/NC(=O)c2c(Nc3ccccc3)nn(C)c2N)cc1Oc1ccccc1` [12c, (E)-5-amino-N′-(4-methoxy-3-phenoxybenzylidene)-1-methyl-3-(phenylamino)-1H-pyrazole-4-carbohydrazide], the activity at 10 µM in data set [1] amounted to 85.2%; in [10] it was 98.5%. Besides, the Mean growth percentage at 10 µM in data set [2] came to 94.6%; in data set [4], 104%; in [7], 111%; in data set [8], 100%; in [9] it was 82.1%. The same molecule came in with a mean growth percentage (cell growth remaining vs control) at 10 µM in data set [3] of 88.3%. Besides, the IC50 in [5] stood at 331 ± 14 µM; in data set [6] (Homo sapiens, Platelet) it was 193 ± 16 µM. For the same molecule, the “Mean Growth Percentage” value in [11] was determined as 104.08%.
Take `COc1ccc(/C=N/NC(=O)c2c(Nc3ccccc3)nn(CC(O)c3ccccc3)c2N)cc1` (centres unmarked) [13a, (E)-5-amino-1-(2-hydroxy-2-phenylethyl)-N′-(4-methoxybenzylidene)-3-(phenylamino)-1H-pyrazole-4-carbohydrazide]: the values for the activity at 10 µM in data set [1] and in data set [10] were 83.7% and 94.5%, respectively. In addition, the Mean growth percentage at 10 µM was found to be 81.8% in data set [2]; 93.8% in data set [4]; 85.9% in data set [7]; 96.4% in [8]; 91.8% in data set [9]. In [3], this molecule came in with a mean growth percentage (cell growth remaining vs control) at 10 µM of 81%. Further, the IC50 is 883 ± 39 µM in [5] and 213 ± 17 µM in [6] (Homo sapiens, Platelet). For the same molecule, in data set [11], the “Mean Growth Percentage” value was 99.43%.
With `CC(=O)Oc1ccccc1C(=O)O` [ASA, acetyl salicylic acid, reference compound], the IC50 in data set [5] is 438 µM.
Turning to `N.N.[Cl][Pt][Cl]` [CisPt, cisplatin, reference compound], the “Mean Growth Percentage” value amounted to 29.33% in [1]; 44.40% in data set [2] (10 µM); 72.74% in data set [3]; 36.83% in data set [4] (10 µM); 38.07% in data set [7] (10 µM, 48h); 86.07% in data set [8] (10 µM, 48h). In addition, the “Mean Growth Percentage” value in data set [9] (10 µM, 48h) is on record as 70.59%; in [10] (10 µM), 59.09%.
As to `CC(=O)N[C@@H](CS)C(=O)O` [NAC, N-acetylcysteine, reference compound], the IC50 in data set [6] is 872 µM.

One may read the IC50 as the concentration that inhibits the measured activity by half. By melting point is commonly meant the temperature of the solid-liquid transition.
